Data as given in US8846704B2, “Thiopyrimidine-based compounds and uses thereof” (YM Biosciences Austraila Pty Ltd, priority 2007, dated 2014).

What was measured:
[1] = molecular target: T1, human JAK2 (Homo sapiens, UniProt O60674); assay: Alphascreen tyrosine kinase enzyme assay, JAK2 kinase domain; type: biochemical; conditions: read-out: JAK2 IC50_nM
T1 construct: The kinase domain of human JAK2 was amplified; GST (N); made in house; host or cells: Sf9 insect cells (baculovirus)
How it was run: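 JAK2 kinase domain expressed in baculovirus/Sf9 and glutathione-affinity purified. Compounds (final […]) pre-incubated 20 min with enzyme in 10 mM HEPES pH 7.5, MgCl2, NaCl, vanadate, 0.1% Tween 20.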

[2] = molecular target: T2, BaF3 TELJAK2 cells (BafT_J2) (Homo sapiens, UniProt O60674); assay: Cellular screening, BaF3 TEL:JAK2 cells, Alamar Blue; type: cell-based; conditions: 40 hr, read-out: BafT_J2 IC50_nM
T2 construct: fused on or other part: TEL (ETV6) N-terminal part, coding nucleotides 1-487, serves as the oligomerising partner; It is fused through a Sal I site to the JAK2 kinase domain and expressed from pTRE2 in BaF3 cells bearing pTET-off; P41212 (Transcription factor ETV6)
How it was run: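 Tet-off BaF3 cells carrying a TEL (nt 1-487)–JAK2 kinase-domain fusion, grown factor-independently in DMEM with 10% Tet-approved FBS without WEHI 3B medium. Compounds were diluted to 20 μM in screening plates, and cells (50,000–200,000 cell/mL at 1.1×) were incubated 40 hr at 37 °C, 5% CO2. Alamar Blue was then added for 4-6 hours; read at 544 nm.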

[3] = molecular target: T3, human JAK3 (Homo sapiens, UniProt P52333); assay: Alphascreen tyrosine kinase enzyme assay, JAK3 kinase domain; type: biochemical; conditions: read-out: JAK3 IC50_nM
T3 construct: The kinase domain of human JAK3 was amplified; GST (N); made in house; host or cells: Sf9 insect cells (baculovirus)
How it was run: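 GST-affinity-purified human JAK3 kinase domain (baculovirus/Sf9) was pre-incubated 20 min with compound ([…]) in HEPES pH 7.5 buffer with MgCl2, vanadate and Tween 20. Biotinylated peptide substrate ([…]) and ATP were then added; phosphotyrosine was detected by AlphaScreen PY100 acceptor and streptavidin donor beads after 2–3 h.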

[4] = molecular target: T4, human JAK1 (Homo sapiens, UniProt P23458); assay: Alphascreen tyrosine kinase enzyme assay, JAK1 kinase domain; type: biochemical; conditions: read-out: JAK1 IC50_nM
T4 construct: The kinase domain of human JAK1 was amplified; GST (N); made in house; host or cells: Sf9 insect cells (baculovirus)
Method: For screening purposes, compounds (in 100% DMSO) were warmed at 37 degrees for at least 20 minutes before use. A […] stock was initially made in assay buffer, where the final concentration of DMSO was 0.3%. The stocks were then diluted in 384 well Optiplates (Packard) where the final concentration of the compound was […].
The kinase domain of human JAK1 was amplified from U937mRNA using the polymerase chain reaction with the following primers: […]
The JAK1 PCR products were cloned into the pDest20 destination vector (Gibco). The JAK1 plasmid was then transformed into competent DH10Bac cells (Gibco), and the recombinant baculovirus was prepared via Sf9 insect cell transfection.
Baculovirus preparations from each of the constructs were infected into either one or five liters of Sf9 cells (Invitrogen) grown in SF-900 medium (Invitrogen) to a cell density of approximately 1-2×10^6 cells/ml. Cells were infected with virus at a MOI of 0.8-3.0. Cells were harvested and lysed. Tyrosine kinase domains were purified by affinity chromatography on a glutathione-agarose column (Scientifix Pty. Ltd. catalog #: GSH-200).
Kinase assays were performed in 384 well Optiplates (Packard) using an Alphascreen Protein Tyrosine Kinase PY100 detection kit The compounds were pre-incubated with affinity purified PTK domain in the presence of phosphotyrosine assay buffer (10 mM HEPES, pH 7.5, 100 mM MgCl2, 25 mM NaCl, […] and 0.1% Tween 20) for 20 minutes. The compounds were then incubated with substrate in the presence of ATP. The substrate used was susbtrate-1 with the sequence biotin-EGPWLEEEEEAYGWMDF-NH2 [SEQ. ID. NO. 13] (final concentration […]). For HCK 80 μm ATP was used and incubated for 60 minutes. Alphascreen phosphotyrosine acceptor beads followed by streptavidin donor beads at a concentration of 1/100 in stop buffer were added to each well under subdued light and incubated for 2-3 hours., The Alphascreen plates were read on a Packard Fusion Alpha instrument.

T4 sequence (P23458 875-1153 limits assumed): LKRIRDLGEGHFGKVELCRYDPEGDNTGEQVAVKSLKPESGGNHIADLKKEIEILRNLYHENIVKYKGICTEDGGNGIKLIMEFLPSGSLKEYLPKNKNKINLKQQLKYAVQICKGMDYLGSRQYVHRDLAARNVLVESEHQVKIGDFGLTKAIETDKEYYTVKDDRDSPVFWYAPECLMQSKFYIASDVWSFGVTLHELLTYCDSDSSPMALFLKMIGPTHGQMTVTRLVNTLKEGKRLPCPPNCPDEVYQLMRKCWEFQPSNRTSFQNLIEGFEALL
T2 sequence (O60674 whole entry, change not shown, the tested form may be a part): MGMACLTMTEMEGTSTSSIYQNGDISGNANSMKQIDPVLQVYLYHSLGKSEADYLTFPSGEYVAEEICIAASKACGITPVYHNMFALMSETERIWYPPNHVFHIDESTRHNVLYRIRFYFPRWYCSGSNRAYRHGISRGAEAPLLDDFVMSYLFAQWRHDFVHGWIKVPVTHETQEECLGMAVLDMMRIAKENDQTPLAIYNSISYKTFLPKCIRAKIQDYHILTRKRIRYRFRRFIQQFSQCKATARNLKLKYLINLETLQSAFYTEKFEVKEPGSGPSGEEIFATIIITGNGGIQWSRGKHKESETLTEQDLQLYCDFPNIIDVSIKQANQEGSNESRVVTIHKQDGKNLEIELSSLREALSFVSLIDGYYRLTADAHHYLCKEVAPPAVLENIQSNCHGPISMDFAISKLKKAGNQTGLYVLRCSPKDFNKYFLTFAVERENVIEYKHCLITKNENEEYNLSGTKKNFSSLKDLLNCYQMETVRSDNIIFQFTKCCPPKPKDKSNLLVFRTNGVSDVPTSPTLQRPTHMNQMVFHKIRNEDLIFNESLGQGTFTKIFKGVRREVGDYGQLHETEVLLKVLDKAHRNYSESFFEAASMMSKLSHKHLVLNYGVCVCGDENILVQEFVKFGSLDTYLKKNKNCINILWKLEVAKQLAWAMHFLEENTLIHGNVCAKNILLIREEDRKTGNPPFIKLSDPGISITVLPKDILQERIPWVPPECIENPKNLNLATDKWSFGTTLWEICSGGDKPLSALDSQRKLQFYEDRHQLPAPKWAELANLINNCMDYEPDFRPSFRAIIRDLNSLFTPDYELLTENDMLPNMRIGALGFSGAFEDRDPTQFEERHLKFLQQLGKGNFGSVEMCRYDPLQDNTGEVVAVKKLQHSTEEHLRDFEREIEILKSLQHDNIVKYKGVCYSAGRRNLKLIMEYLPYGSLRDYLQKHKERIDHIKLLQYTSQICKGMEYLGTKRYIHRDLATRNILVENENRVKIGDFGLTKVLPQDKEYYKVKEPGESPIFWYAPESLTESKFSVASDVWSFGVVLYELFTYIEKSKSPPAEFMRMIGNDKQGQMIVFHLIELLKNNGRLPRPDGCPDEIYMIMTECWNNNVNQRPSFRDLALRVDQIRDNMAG
T1 sequence (O60674 849-1124 limits assumed): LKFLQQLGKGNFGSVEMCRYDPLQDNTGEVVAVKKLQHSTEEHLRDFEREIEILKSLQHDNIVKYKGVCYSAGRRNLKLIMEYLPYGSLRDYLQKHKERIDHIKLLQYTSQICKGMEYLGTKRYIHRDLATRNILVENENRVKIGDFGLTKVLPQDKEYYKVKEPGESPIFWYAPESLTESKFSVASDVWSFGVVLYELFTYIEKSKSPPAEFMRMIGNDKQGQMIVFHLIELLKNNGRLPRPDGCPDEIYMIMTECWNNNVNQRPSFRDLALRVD
T3 sequence (P52333 822-1111 limits assumed): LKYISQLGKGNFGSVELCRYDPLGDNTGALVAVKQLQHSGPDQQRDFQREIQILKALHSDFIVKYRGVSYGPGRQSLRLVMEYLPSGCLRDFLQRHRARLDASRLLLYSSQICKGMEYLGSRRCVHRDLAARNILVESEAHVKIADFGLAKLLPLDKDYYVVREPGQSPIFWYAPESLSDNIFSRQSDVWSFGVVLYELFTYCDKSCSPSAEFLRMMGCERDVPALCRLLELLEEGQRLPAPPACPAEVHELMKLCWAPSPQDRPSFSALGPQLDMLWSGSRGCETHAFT

Structure (SMILES): C=CC(=O)Nc1ccc(Sc2nc(Nc3ccc(OC)c(OC)c3)ncc2C)cc1 [Compound 241, N-(4-(2-(3,4-dimethoxyphenylao)-5-methylpyrimidin-4-ylthio)phenyl)acrylamide]
- IC50 [1]: > 1 µM
- GI50 [2]: < 5 µM
- IC50 [3]: < 0.1 µM
- IC50 [4]: > 1 µM

Structure (SMILES): C=CC(=O)Nc1cccc(Nc2nccc(Sc3ccc(OC)cc3)n2)c1 [Compound 42, N-(3-(4-(4-methoxyphenylthio)pyrimidin-2-ylao)phenyl)acrylamide]
- IC50 [1]: > 1 µM
- GI50 [2]: < 20 µM
- IC50 [3]: < 0.1 µM
- IC50 [4]: > 1 µM

Structure (SMILES): C=CC(=O)Nc1ccc(Sc2nc(Nc3ccc(N4CCC(O)C4)cc3)ncc2C)cc1 (centres unmarked) [Compound 295, N-(4-(2-(4-(3-hydroxypyrrolidin-1-yl)phenylao)-5-methylpyrimidin-4-ylthio)phenyl)acrylamide]
- IC50 [1]: > 1 µM
- GI50 [2]: > 20 µM
- IC50 [3]: < 0.1 µM
- IC50 [4]: > 1 µM

Structure (SMILES): O=C(/C=C\Cl)Nc1ccc(Sc2ccnc(Nc3ccc(N4CCOCC4)cc3)n2)cc1 [Compound 346, (Z)-3-chloro-N-(4-(2-(4-morpholinophenylao)pyrimidin-4-ylthio)phenyl)acrylamide]
- IC50 [1]: > 1 µM
- GI50 [2]: < 1 µM
- IC50 [3]: < 0.1 µM
- IC50 [4]: > 1 µM

Structure (SMILES): N#Cc1nnnn1Cc1ccc(Sc2ccnc(Nc3ccc(N4CCOCC4)cc3)n2)cc1 [Compound 155, 1-(4-(2-(4-morpholinophenylao)pyrimidin-4-ylthio)benzyl)-1H-tetrazole-5-carbonitrile]
- IC50 [1]: > 1 µM
- GI50 [2]: < 20 µM
- IC50 [3]: < 0.1 µM
- IC50 [4]: > 1 µM

Structure (SMILES): C=CC(=O)Nc1cccc(Nc2nccc(Sc3ccccn3)n2)c1 [Compound 2, N-(3-(4-(pyridin-2-ylthio)pyrimidin-2-ylamino)phenyl)acrylamide]
- IC50 [1]: > 1 µM
- GI50 [2]: < 5 µM
- IC50 [3]: < 0.1 µM
- IC50 [4]: > 1 µM

Structure (SMILES): C=CC(=O)N(C)c1ccc(Sc2nc(Nc3ccc(N4CCOCC4)cc3)ncc2C)cc1 [Compound 173, N-methyl-N-(4-(5-methyl-2-(4-morpholinophenylao)pyrimidin-4-ylthio)phenyl)acrylamide]
- IC50 [1]: < 0.5 µM
- GI50 [2]: < 20 µM
- IC50 [3]: < 0.1 µM
- IC50 [4]: < 0.5 µM

Structure (SMILES): C=CC(=O)Nc1ccc(Sc2nc(Nc3ccc(OCCN4CCOCC4)cc3)ncc2C)cc1 [Compound 290, N-(4-(5-methyl-2-(4-(2-morpholinoethoxy)phenylao)pyrimidin-4-ylthio)phenyl)acrylamide]
- IC50 [1]: > 1 µM
- GI50 [2]: < 20 µM
- IC50 [3]: < 0.1 µM
- IC50 [4]: > 1 µM

Structure (SMILES): C=CC(=O)Nc1ccc(Sc2nc(Nc3cccc(N4CCN(C)CC4)c3)ncc2C)cc1 [Compound 243, N-(4-(5-methyl-2-(3-(4-methylpiperazin-1-yl)phenylao)pyrimidin-4-ylthio)phenyl)acrylamide]
- IC50 [1]: > 1 µM
- GI50 [2]: < 5 µM
- IC50 [3]: < 0.1 µM
- IC50 [4]: > 1 µM

Structure (SMILES): N#Cc1nnn(Cc2ccc(Sc3ccnc(Nc4ccc(N5CCOCC5)cc4)n3)cc2)n1 [Compound 156, 2-(4-(2-(4-morpholinophenylao)pyrimidin-4-ylthio)benzyl)-2H-tetrazole-5-carbonitrile]
- IC50 [1]: > 1 µM
- GI50 [2]: < 5 µM
- IC50 [3]: < 0.1 µM
- IC50 [4]: > 1 µM

Structure (SMILES): C=CC(=O)Nc1ccc(Sc2ccnc(Nc3ccc(S(N)(=O)=O)c(OC)c3)n2)cc1 [Compound 374, N-(4-(2-(3-methoxy-4-sulfamoylphenylao)pyrimidin-4-ylthio)phenyl)acrylamide]
- IC50 [1]: > 1 µM
- GI50 [2]: < 5 µM
- IC50 [3]: < 0.1 µM
- IC50 [4]: > 1 µM

Structure (SMILES): C=CC(=O)Nc1ccc(Sc2nc(Nc3ccc(OCCCN(CC)CC)cc3)ncc2C)cc1 [Compound 291, N-(4-(2-(4-(3-(diethylao)propoxy)phenylao)-5-methylpyrimidin-4-ylthio)phenyl)acrylamide]
- IC50 [1]: > 1 µM
- GI50 [2]: < 5 µM
- IC50 [3]: < 0.1 µM
- IC50 [4]: > 1 µM

Structure (SMILES): C=CC(=O)NCc1cccc(Sc2ccnc(Nc3ccc(N4CCOCC4)cc3)n2)c1 [Compound 112, N-(3-(2-(4-morpholinophenylamino)pyrimidin-4-ylthio)benzyl)acrylamide]
- IC50 [1]: > 1 µM
- GI50 [2]: < 20 µM
- IC50 [3]: < 0.1 µM
- IC50 [4]: > 1 µM

Structure (SMILES): C=CC(=O)N(C)c1ccc(Sc2nc(Nc3ccc(N4CCOCC4)cc3)ncc2Br)cc1 [Compound 261, N-(4-(5-bromo-2-(4-morpholinophenylao)pyrimidin-4-ylthio)phenyl)-N-methylacrylamide]
- IC50 [1]: < 0.5 µM
- GI50 [2]: > 20 µM
- IC50 [3]: < 0.1 µM
- IC50 [4]: > 1 µM

Structure (SMILES): NCc1cccc(Sc2ccnc(Nc3ccc(N4CCOCC4)cc3)n2)c1 [Compound 75, 4-(3-(aomethyl)phenylthio)-N-(4-morpholinophenyl)pyrimidin-2-ae]
- IC50 [1]: < 1 µM
- GI50 [2]: < 20 µM
- IC50 [3]: < 0.5 µM
- IC50 [4]: < 0.5 µM

Structure (SMILES): C=CC(=O)Nc1ccc(Sc2nc(Nc3ccc(N4CCOCC4)cc3)ncc2Br)cc1 [Compound 306, N-(4-(5-bromo-2-(4-morpholinophenylao)pyrimidin-4-ylthio)phenyl)acrylamide]
- IC50 [1]: > 1 µM
- GI50 [2]: > 20 µM
- IC50 [3]: < 0.1 µM
- IC50 [4]: > 1 µM

Structure (SMILES): C=CC(=O)Nc1ccc(Sc2ccnc(Nc3cccc(N4CCOCC4)c3)n2)cc1 [Compound 77, N-(4-(2-(3-morpholinophenylao)pyrimidin-4-ylthio)phenyl)acrylamide]
- IC50 [1]: > 1 µM
- GI50 [2]: < 5 µM
- IC50 [3]: < 0.1 µM
- IC50 [4]: > 1 µM

Structure (SMILES): Cc1cc(N)ccc1Sc1nc(Nc2ccc(N3CCOCC3)cc2)ncc1C [Compound 162, 4-(4-ao-2-methylphenylthio)-5-methyl-N-(4-morpholinophenyl)pyrimidin-2-ae]
- IC50 [1]: < 1 µM
- GI50 [2]: < 20 µM
- IC50 [3]: < 0.1 µM
- IC50 [4]: < 0.5 µM

Structure (SMILES): C=CC(=O)Nc1ccc(Sc2nc(Nc3ccc(OC)c(NS(C)(=O)=O)c3)ncc2C)cc1 [Compound 293, N-(4-(2-(4-methoxy-3-(methylsulfonamido)phenylao)-5-methylpyrimidin-4-ylthio)phenyl)acrylamide]
- IC50 [1]: > 1 µM
- GI50 [2]: < 5 µM
- IC50 [3]: < 0.1 µM
- IC50 [4]: > 1 µM

Structure (SMILES): CCOC(=O)/C=C/C(=O)Nc1ccc(Sc2nc(Nc3ccc(N4CCOCC4)cc3)ncc2C)cc1 [Compound 385, (E)-ethyl 4-(4-(5-methyl-2-(4-morpholinophenylao)pyrimidin-4-ylthio)phenylao)-4-oxobut-2-enoate]
- IC50 [1]: > 1 µM
- GI50 [2]: > 20 µM
- IC50 [3]: < 0.1 µM
- IC50 [4]: > 1 µM

Structure (SMILES): C=CC(=O)Nc1ccc(Sc2nc(Nc3ccc(NS(C)(=O)=O)cc3)ncc2C)cc1 [Compound 285, N-(4-(5-methyl-2-(4-(methylsulfonamido)phenylao)pyrimidin-4-ylthio)phenyl)acrylamide]
- IC50 [1]: > 1 µM
- GI50 [2]: < 5 µM
- IC50 [3]: < 0.1 µM
- IC50 [4]: > 1 µM

Structure (SMILES): Cc1cnc(Nc2ccc(N3CCOCC3)cc2)nc1Sc1ccc(NC(=O)/C=C\C(=O)O)cc1 [Compound 380, (Z)-4-(4-(5-methyl-2-(4-morpholinophenylao)pyrimidin-4-ylthio)phenylao)-4-oxobut-2-enoic acid]
- IC50 [1]: > 1 µM
- GI50 [2]: > 20 µM
- IC50 [3]: < 0.1 µM
- IC50 [4]: > 1 µM

Structure (SMILES): OCc1ccc(Sc2ccnc(Nc3ccc(N4CCOCC4)cc3)n2)cc1 [Compound 67, (4-(2-(4-morpholinophenylao)pyrimidin-4-ylthio)phenyl)methanol]
- IC50 [1]: < 0.5 µM
- GI50 [2]: < 20 µM
- IC50 [3]: < 0.5 µM
- IC50 [4]: < 1 µM
